Test results taken from publication PMC12040169 (PLOS Biology, 2025).

Test: in vitro
Details: human, hela cells, % viability
O=C(Nc1ccncc1)c1ccc(N2C(=O)c3ccccc3C2=O)cc1 [CBK287803] gave a viability at 28.5 h, 10 µM of 113%. In the case of CN1CCN(C(=O)c2ccsc2NS(=O)(=O)c2ccc(-c3ccccc3)cc2)CC1 [CBK042274], the viability at 28.5 h, 10 µM is reported as 103%. CN1C(=O)COc2ccccc2C/C=C/C[C@@H]2[C@H]1CCCN2C(=O)c1cnn2cccnc12 [CBK292083] showed a viability at 28.5 h, 10 µM of 109%. Compound O=c1[nH]c2cccc(O)c2o1 [CBK048613] has a viability at 28.5 h, 10 µM of 90.9%. Work on COc1cc(NC(=O)N2CCNC(=O)C2)cc(OC)c1OC [CBK155875] yielded a viability at 28.5 h, 10 µM of 104%. With Cc1ccc(N(CC(=O)Nc2cccc3cccnc23)S(=O)(=O)c2ccc(C)cc2)cc1 [CBK262201] the viability at 28.5 h, 10 µM was 104%. In the case of C/C(=N\N1CCN(Cc2cccc3ccccc23)CC1)c1ccncc1 [CBK263574], the viability at 28.5 h, 10 µM is reported as 98.9%. For COc1ccc2[nH]cc(CCNC(=O)[C@H](CC(C)C)NC(C)=O)c2c1 [CBK116210], the viability at 28.5 h, 10 µM was 107%. Compound Cc1nn(C)cc1S(=O)(=O)N1CCCC(c2cccc(Cc3ccccc3Cl)n2)C1 (stereo not drawn) [CBK286127] has a viability at 28.5 h, 10 µM of 106%. O=C(c1ccc2ccccc2c1)N1CCC2(CC1)CN(Cc1ccccc1)CCO2 [CBK161118A] gave a viability at 28.5 h, 10 µM of 94.1%. CCCC/C(=N/N=C(\CCCC)c1ccncc1)c1ccncc1 [CBK016521] showed a viability at 28.5 h, 10 µM of 120%. Compound CC(C)Nc1cncc(OCc2ccc(Cl)c(Cl)c2)n1 [CBK115653] has a viability at 28.5 h, 10 µM of 87.5%. Work on Cc1ccc2[nH]c(C3CCCCN3C(=O)c3ccncc3)nc2c1 (stereo not drawn) [CBK284000] yielded a viability at 28.5 h, 10 µM of 103%. Work on COc1cccc2c1cc(C(=O)NCCn1ccnc1C)n2C [CBK283267] yielded a viability at 28.5 h, 10 µM of 101%. CC(=O)N1CCCc2cc(C(O)CN(C)Cc3ccccc3)ccc21 (stereo not drawn) [CBK282149] gave a viability at 28.5 h, 10 µM of 88.5%. Cc1nn(C)c(Cl)c1CN1CCCC(CCC(=O)N2CCN(C)CC2)C1 (stereo not drawn) [CBK307716] gave a viability at 28.5 h, 10 µM of 92.5%. In the case of Cc1ccc2[nH]c3c(c2c1)CCOC31CCN(CCOc2cccc3c2CCCC3=O)CC1 [CBK040230], the viability at 28.5 h, 10 µM is reported as 83.3%. Compound OC1CSc2nc(-c3cnccn3)nn2C1 (stereo not drawn) [CBK027096] has a viability at 28.5 h, 10 µM of 97.8%. Work on COCCOc1ncccc1OCc1ccccc1 [CBK001456] yielded a viability at 28.5 h, 10 µM of 92.9%. O=C(O)c1sccc1S(=O)(=O)NCc1ccc(Cn2cccn2)cc1 [CBK296707] gave a viability at 28.5 h, 10 µM of 99.4%. With C(CSC1=NCCN1)CSC1=NCCN1 [CBK278217B] the viability at 28.5 h, 10 µM was 106%. For COc1ccc(-c2cc(=O)[nH]c(N3CCN(C)CC3)n2)cc1 [CBK003849], the viability at 28.5 h, 10 µM was 90.4%. Work on CCN(Cc1ccc(C#N)cc1F)C(=O)C(NC(=O)OC)C(C)C (stereo not drawn) [CBK306372] yielded a viability at 28.5 h, 10 µM of 86.2%. COc1ccc(CSc2nnc(-c3ccncc3)n2C)cc1[N+](=O)[O-] [CBK269638] showed a viability at 28.5 h, 10 µM of 87.7%. Work on O=C(NCCCc1ccccn1)c1cc(-c2cccs2)no1 [CBK282652] yielded a viability at 28.5 h, 10 µM of 63.9%. With CCN1CCC2CN(CCCC(c3ccc(F)cc3)c3ccc(F)cc3)CCN2C1=O (stereo not drawn) [CBK024996] the viability at 28.5 h, 10 µM was 92.7%. For CC1CCCC(C)N1C(=O)CN1C2CCC1CC(O)(c1ccco1)C2 (stereo not drawn) [CBK284043], the viability at 28.5 h, 10 µM was 85.4%. Work on COc1ccc(-c2nnc(SCC(=O)NN)n2-c2ccccc2)cc1OC [CBK262264] yielded a viability at 28.5 h, 10 µM of 112%. CCN(Cc1cnc(C)s1)[C@H]1CCO[C@@H](c2ccccc2-c2ccc(OC)cc2)C1 [CBK285853] showed a viability at 28.5 h, 10 µM of 95.5%. With Fc1ccccc1-c1cn2ccnc2c(N2CCOCC2)n1 [CBK036584] the viability at 28.5 h, 10 µM was 105%. CC1(c2ccccc2)CC(C)(C)N(C(=O)C2CCCO2)c2ccccc21 (stereo not drawn) [CBK059175] gave a viability at 28.5 h, 10 µM of 97.5%. In the case of COCCCNC(=O)c1cnn2c(C)c(Cc3cccc(F)c3)c(C)nc12 [CBK162126], the viability at 28.5 h, 10 µM is reported as 116%. CCCC12CN3CC(CCC)(CN(C1)C3C(O)C(O)C(O)CO)C2=O (stereo not drawn) [CBK265529] gave a viability at 28.5 h, 10 µM of 88.3%. Compound CN1CCN(c2nccnc2-c2ccco2)CC1 [CBK038050] has a viability at 28.5 h, 10 µM of 86.7%. With Cc1cccc(-c2ncc(NC(=O)Cc3cccc(Oc4ccccc4)c3)nc2-c2ccc(N)cc2)c1 [CBK037583] the viability at 28.5 h, 10 µM was 97.2%. COCCCn1c(C)c(C)n2c3c(=O)n(CCN4CCCCC4)c(=O)n(C)c3nc12 [CBK269762] gave a viability at 28.5 h, 10 µM of 102%. Work on CCOC(=O)CN(C)Cc1ccccc1Br [CBK261891] yielded a viability at 28.5 h, 10 µM of 108%. With O=C(NCc1cccs1)c1ccc(N2CCN(C(=O)c3ccccc3C(F)(F)F)CC2)nn1 [CBK153218] the viability at 28.5 h, 10 µM was 87.6%. In the case of Cn1c(SCCOc2ccccc2Cl)nnc1-c1ccncc1 [CBK265969], the viability at 28.5 h, 10 µM is reported as 111%. With Cc1sc2nc(C(C)N3CCN(Cc4ccco4)CC3)[nH]c(=O)c2c1C (stereo not drawn) [CBK306066] the viability at 28.5 h, 10 µM was 93.7%. In the case of CCOc1ccc(NC(c2ccccc2)c2cc3cc(OC)ccc3[nH]c2=O)cc1 (stereo not drawn) [CBK286157], the viability at 28.5 h, 10 µM is reported as 81.7%. For CCCCSc1nnc2c(n1)OC(/C=C/c1ccc([N+](=O)[O-])o1)Nc1ccccc1-2 (stereo not drawn) [CBK262565], the viability at 28.5 h, 10 µM was 101%. For CCc1ccc(/C=N/N2CCN(Cc3cccc4ccccc34)CC2)cc1 [CBK262986], the viability at 28.5 h, 10 µM was 104%. For COc1ccc(C)cc1S(=O)(=O)n1ccc2c(CNC3CC(C)(C)NC(C)(C)C3)cccc21 [CBK113311T], the viability at 28.5 h, 10 µM was 83.1%. For Cc1ccc(OCCn2cncc2-c2cn(C)nc2C)cc1 [CBK281626], the viability at 28.5 h, 10 µM was 93.7%.
